{"source": "BindingDB's records for doi:10.1021/jm00102a008", "about": "(University of South Florida, 1993)", "molecular_target": "T1, Adenosine receptor A1 (Cavia porcellus, UniProt P47745)", "T1 sequence (P47745 whole entry)": "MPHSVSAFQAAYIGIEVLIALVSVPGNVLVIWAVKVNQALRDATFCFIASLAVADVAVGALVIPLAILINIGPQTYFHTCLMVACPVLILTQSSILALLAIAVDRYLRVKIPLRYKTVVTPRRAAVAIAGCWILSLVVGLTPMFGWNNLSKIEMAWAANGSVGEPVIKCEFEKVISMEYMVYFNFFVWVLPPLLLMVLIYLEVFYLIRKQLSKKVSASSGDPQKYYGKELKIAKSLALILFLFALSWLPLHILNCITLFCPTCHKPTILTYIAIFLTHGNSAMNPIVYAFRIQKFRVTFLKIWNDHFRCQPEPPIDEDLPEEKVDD", "test": "Tested for adenosine A1 receptor agonistic activity by determining concentration needed to prolong the stimulus-QRS interval by 50% of the maximum response", "data": [{"compound": "Nc1nc(N=NCc2ccccc2)nc2c1ncn2C1O[C@H](CO)[C@@H](O)[C@H]1O", "note": "(some centres not stated)", "values": [{"measurement": "EC50", "result": 83.2, "unit": "µM"}]}, {"compound": "Nc1nc(N=NCc2cccc(Cl)c2)nc2c1ncn2C1O[C@H](CO)[C@@H](O)[C@H]1O", "note": "(some centres not stated)", "values": [{"measurement": "EC50", "result": 49, "unit": "µM"}]}, {"compound": "Nc1nc(N=NCCc2ccccc2)nc2c1ncn2C1O[C@H](CO)[C@@H](O)[C@H]1O", "note": "(some centres not stated)", "values": [{"measurement": "EC50", "result": 83.2, "unit": "µM"}]}, {"compound": "Nc1nc(N=NCc2ccccc2F)nc2c1ncn2C1O[C@H](CO)[C@@H](O)[C@H]1O", "note": "(some centres not stated)", "values": [{"measurement": "EC50", "result": 41.7, "unit": "µM"}]}, {"compound": "Nc1nc(N=NCc2cccs2)nc2c1ncn2C1O[C@H](CO)[C@@H](O)[C@H]1O", "note": "(some centres not stated)", "values": [{"measurement": "EC50", "result": 41.7, "unit": "µM"}]}, {"compound": "Nc1nc(N=NCc2ccccn2)nc2c1ncn2C1O[C@H](CO)[C@@H](O)[C@H]1O", "note": "(some centres not stated)", "values": [{"measurement": "EC50", "result": 41.7, "unit": "µM"}]}, {"compound": "Nc1nc(N=NCc2ccccc2Cl)nc2c1ncn2C1O[C@H](CO)[C@@H](O)[C@H]1O", "note": "(some centres not stated)", "values": [{"measurement": "EC50", "result": 49, "unit": "µM"}]}]}
